Starred links: 1 amine or outer side, 2 acyl side, 3 side chain; linkers in the order of their positions; H or OH if unused. Non-standard residues stand in square brackets, D forms with d. Residues, ends and D or L forms follow the SMILES beside them. *: point of attachment. Sta = CC(C)C[C@H](N)[C@@H](O)CC(=O)O; X2 = CC(C)CC(N[*:1])C(O)CC(=O)[*:2]; NMe2Val = CC(C)[C@@H](C(=O)*)N(C)C; dNMeF = CN[C@H](Cc1ccccc1)C(=O)O; NMeF = CN[CH](Cc1ccccc1)C(=O)O; NMeQ = CN[CH](CCC(N)=O)C(=O)O; dHiv = CC(C)[C@@H](O)C(=O)O; Hiv = CC(C)[C@H](O)C(=O)O; Isovaleryl = CC(C)CC(=O)*; X1 = CCC(C)C(O)C(=O)*

Series [1] concerns MCF7 cells. Briefly: Cellular uptake and inhibition of cellular cathepsins, treated cells then lysed, cathepsin D/E substrate. In kind it is cell-based. The procedure: MCF7 cells were cultured in Dulbecco's Modified Eagle Medium (DMEM, Invitrogen) containing 10% fetal bovine serum (FBS, HyClone, Logan, Utah), in a humidified atmosphere containing 5% CO2 at 37° C. Briefly, MCF7 cells were seeded into 24-well plates. […] After 1 h incubation the medium was removed and the cells were trypsinized for 10 min, before being collected by centrifugation and lysed with NP-40 lysis buffer (1% NP-40, 50 mM NaOAc, pH 4.0). The lysate (50 μL) from each well was incubated at 37° C. with 10 μM Mca-[…]Dnp)-D-Arg-NH2 (the same substrate used for cathepsin D and E in other assays) in 50 mM NaOAc (pH 4.0, total volume 100 μL). The reaction was monitored by measuring the increase in fluorescence (λex=320 nm, λem=405 nm).
After this time, cells were washed, lysed and then the protease activity of the lysate was measured with a fluorogenic cathepsin D/E substrate (see FIG. 9A).

Another series concerns the target T1, cathepsin E (Homo sapiens, UniProt P14091).
T1 construct: Reaction Biology Corp. (ran the assay)
T1 sequence (P14091 54-396): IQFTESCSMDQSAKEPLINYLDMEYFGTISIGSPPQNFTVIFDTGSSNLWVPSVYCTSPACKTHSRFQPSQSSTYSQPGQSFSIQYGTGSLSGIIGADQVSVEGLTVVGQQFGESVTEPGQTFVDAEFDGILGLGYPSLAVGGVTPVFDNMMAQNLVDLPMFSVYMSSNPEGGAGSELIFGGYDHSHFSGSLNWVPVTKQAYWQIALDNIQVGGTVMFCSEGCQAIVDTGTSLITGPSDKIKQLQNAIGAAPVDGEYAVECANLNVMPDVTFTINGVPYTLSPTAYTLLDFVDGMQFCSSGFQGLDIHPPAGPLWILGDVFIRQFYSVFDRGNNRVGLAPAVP
Briefly: Protease inhibition screen and dose-response assay. The format is biochemical. The note with it: 10 μM. The procedure:
(§1) After incubation at room temperature for 10-15 min, the substrate was added, after which fluorescence at each relevant Ex/Em wavelength was measured every 5 min for 2 h. The substrate alone in the reaction buffer served as background. […] Each enzyme assay was performed in duplicate by Reaction Biology Corp. (Malvern, Pa.).
(§2) Assays were carried out by Reaction Biology Corp. (Malvern, Pa.). Enzyme activity (in %), calculated as above, was used to determine IC50 values with non-linear regression in GraphPad Prism (GraphPad Software, Inc., La Jolla, Calif.).

Series [2] deals with human peripheral blood mononuclear cells (PBMCs). Briefly: Antigen-stimulated T cell proliferation in PBMCs (flow cytometry, CD3+ gate). The format is cell-based. Conditions: same experiment, PBMC. On the procedure: PBMCs were isolated from buffy coats (leukopac, PBL) obtained from Lifesouth Community Blood Center (Gainesville, Fla., USA) by Ficoll-Hypaque density gradient centrifugation using Lymphoprep (Axis-Shield, Norway). Briefly, the contents of the buffy coat were diluted to three times its volume in sterile 1×PBS pH 7.4 (Gibco, California, USA). The dilution was layered onto the Lymphoprep in a 2:1 ratio. The sample was then centrifuged for 25 min at room temperature and 250 g. The PBMCs were collected at the interface, washed twice with PBS and centrifuged each time for 10 min at 4° C. and 250 g. Cell viability was assessed by trypan blue exclusion. […]
Experimental pelleted cells were incubated for 30 min at 4° C. with antibodies and washed with staining buffer (PBS+2% BSA+0.1% Na azide). […] Quantitation was carried out using FCS Express (version 3, De Novo Software, Los Angeles, Calif.) by gating for lymphocytes based on forward and side scatter properties followed by analysis of the percentages of positively stained quadrants. 50,000 cells were analyzed for each sample and isotype-specific immunoglobulin controls were run for each fluorochrome. […]

The subject of series [3] is TH cells induced by allogeneic activated DC. Kind of series: Allogeneic mixed lymphocyte reaction, DCs and TH cells from different donors. The format is cell-based, human. The note with it: allogeneic MLR.
For a further series, the target named is T2, cathepsin D (Homo sapiens, UniProt P07339).
T2 construct: Reaction Biology Corp. (ran the assay)
T2 sequence (P07339 65-412): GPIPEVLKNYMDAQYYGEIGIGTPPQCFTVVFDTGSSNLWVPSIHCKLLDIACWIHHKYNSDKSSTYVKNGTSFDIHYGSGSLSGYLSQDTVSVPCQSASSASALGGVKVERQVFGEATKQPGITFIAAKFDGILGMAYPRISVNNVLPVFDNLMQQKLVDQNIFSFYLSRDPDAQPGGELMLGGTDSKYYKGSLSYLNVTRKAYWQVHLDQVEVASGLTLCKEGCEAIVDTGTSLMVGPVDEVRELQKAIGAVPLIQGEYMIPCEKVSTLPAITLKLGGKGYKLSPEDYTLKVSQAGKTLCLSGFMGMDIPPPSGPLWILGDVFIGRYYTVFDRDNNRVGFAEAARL
The format is biochemical. The note with it: 10 μM. The procedure:
as §1, §2

Series [4] is described as follows: Solubility in DMSO for dilution series. In kind it is physicochemical.
Series [5] deals with MCF7 cells. The note with it: literature (Zaidi et al. 2007); cited from earlier work.

On to `COC(=O)[C@@H]1CCCN1C(=O)[C@@H](Cc1ccccc1)N(C)C(=O)[C@H](C)NC(=O)[C@@H](NC(=O)C[C@H](O)[C@H](CC(C)C)NC(=O)[C@H](CC(N)=O)NC(=O)[C@H](CC(C)C)NC(=O)[C@H](OC(=O)[C@@H](OC(=O)[C@H](C(C)C)N(C)C)C(C)C)C(C)C)[C@@H](C)O` [Compound 1, grassystatin A] (NMe2Val-[Hiv][dHiv]LN[Sta]TA[dNMeF]P-OMe), for which the “ability to enter cells” value in the series with MCF7 cells [1] (MCF7 cells, inferred from cellular vs lysate IC50) was “more efficiently enter cells than pepstatin A”. In addition, the “inhibitory activity in protease panel” value at cathepsin E and on cathepsin D was “active” throughout. In series [2], the T cell viability result is given as “unaffected”. Further, in series [3], the DC stimulated proliferation result is “no effect”.
As for `CCC(C)C(O)C(=O)NC(CC(C)C)C(=O)N(C)C(CCC(N)=O)C(=O)NC(CC(C)C)C(O)CC(=O)NC(C(=O)NCC(=O)N(C)C(Cc1ccccc1)C(=O)N1CCCC1C(=O)OC)C(C)CC` (centres unmarked) [Compound 3, grassystatin C] (X1-L[NMeQ][X2]IG[NMeF]P-OMe; configuration not given here), the “solubility in DMSO” value in series [4] is reported as “insoluble”.
On to `CC(C)CC(=O)N[C@H](C(=O)N[C@H](C(=O)N[C@@H](CC(C)C)[C@@H](O)CC(=O)N[C@@H](C)C(=O)N[C@@H](CC(C)C)[C@@H](O)CC(=O)O)C(C)C)C(C)C` [pepstatin A, reference compound] (Isovaleryl-VV[Sta]A[Sta]-OH), for which, in the series with MCF7 cells [1] (MCF7 cells treated 1 h, lysate protease activity), the “apparent IC50 in a cellular system” value was “fairly similar”. In the series on MCF7 cells [5], the cell permeability entry is reported as “poor cell permeability”.

(Values after patent US8569245B2, “Protease inhibitors, compositions and methods of use” (University of Florida Research Foundation, Inc., priority 2009, dated 2013).)
